Measurements as given in PubChem BioAssay AID1259407 (Chemical Carcinogenesis Research Information System (CCRIS), 2018).
Activity calls are given as the source filed them. The rule behind the calls is not given here.

Tested on: CCRIS mutagenicity, Ames/micronucleus/aberration tests
Assay: CCRIS mutagenicity studies
[1] = Test System: AMES SALMONELLA TYPHIMURIUM, Strain/Indicator: TA98, Metabolic Activation: NONE, Method: PREINCUBATION
[2] = Test System: AMES SALMONELLA TYPHIMURIUM, Strain/Indicator: TA100, Metabolic Activation: NONE, Method: PREINCUBATION
[3] = Test System: AMES SALMONELLA TYPHIMURIUM, Strain/Indicator: TA1535, Metabolic Activation: NONE, Method: PREINCUBATION
[4] = Test System: AMES SALMONELLA TYPHIMURIUM, Strain/Indicator: TA1537, Metabolic Activation: NONE, Method: PREINCUBATION

In the case of `CN(C)[C@@H]1C(=O)C(C(N)=O)=C(O)[C@@]2(O)C(=O)C3=C(O)c4c(O)cccc4[C@@](C)(O)[C@H]3[C@H](O)[C@@H]12`, the mutagenic call (End Point: AMES SALMONELLA TYPHIMURIUM, Test System: TA98, Metabolic Activation: NONE, Method: STANDARD PLATE) was “inactive; negative”, the mutagenic call (End Point: AMES SALMONELLA TYPHIMURIUM, Test System: TA100, Metabolic Activation: NONE, Method: STANDARD PLATE) was “inactive; negative” and the mutagenic call (End Point: IN VITRO CHROMOSOMAL ABERRATIONS, Test System: CHO CELLS, Metabolic Activation: NONE) was “inactive; negative”. For the same molecule, the mutagenic call (End Point: IN VITRO CHROMOSOMAL ABERRATIONS, Test System: CHO CELLS, Metabolic Activation: RAT, LIVER, S-9, AROCLOR 1254) was “inactive; negative”, the mutagenic call (Test System: AMES SALMONELLA TYPHIMURIUM, Strain/Indicator: TA98, Metabolic Activation: HAMSTER, LIVER, S-9, AROCLOR 1254, Method: PREINCUBATION) was “inactive; negative” and the mutagenic call [1] was “inactive; negative”. The mutagenic call (Test System: AMES SALMONELLA TYPHIMURIUM, Strain/Indicator: TA98, Metabolic Activation: RAT, LIVER, S-9, AROCLOR 1254, Method: PREINCUBATION) was “inactive; negative”, the mutagenic call (Test System: AMES SALMONELLA TYPHIMURIUM, Strain/Indicator: TA100, Metabolic Activation: HAMSTER, LIVER, S-9, AROCLOR 1254, Method: PREINCUBATION) was “inactive; negative” and the mutagenic call [2] was “inactive; negative”. The mutagenic call (Test System: AMES SALMONELLA TYPHIMURIUM, Strain/Indicator: TA100, Metabolic Activation: RAT, LIVER, S-9, AROCLOR 1254, Method: PREINCUBATION) was “inactive; negative”, the mutagenic call (Test System: AMES SALMONELLA TYPHIMURIUM, Strain/Indicator: TA1535, Metabolic Activation: HAMSTER, LIVER, S-9, AROCLOR 1254, Method: PREINCUBATION) was “inactive; negative” and the mutagenic call [3] was “inactive; negative”. For the same molecule, the mutagenic call (Test System: AMES SALMONELLA TYPHIMURIUM, Strain/Indicator: TA1535, Metabolic Activation: RAT, LIVER, S-9, AROCLOR 1254, Method: PREINCUBATION) was “inactive; negative”, the mutagenic call (Test System: AMES SALMONELLA TYPHIMURIUM, Strain/Indicator: TA1537, Metabolic Activation: HAMSTER, LIVER, S-9, AROCLOR 1254, Method: PREINCUBATION) was “inactive; negative” and the mutagenic call [4] was “inactive; negative”. For the same molecule, the mutagenic call (Test System: AMES SALMONELLA TYPHIMURIUM, Strain/Indicator: TA1537, Metabolic Activation: RAT, LIVER, S-9, AROCLOR 1254, Method: PREINCUBATION) was “inactive; negative” and the mutagenic call (Test System: MOUSE LYMPHOMA, Strain/Indicator: L5178Y (TK+/TK-), Metabolic Activation: RAT, LIVER, S-9, AROCLOR 1254, Method: SUSPENSION/PLATE) was “active; positive”.

In the case of `Cc1ccc(N)cc1C`, the mutagenic call (Test System: AMES SALMONELLA TYPHIMURIUM, Strain/Indicator: TA97, Metabolic Activation: HAMSTER, LIVER, S-9, AROCLOR 1254 (10%), Method: PREINCUBATION) was “inactive; negative”, the mutagenic call (Test System: AMES SALMONELLA TYPHIMURIUM, Strain/Indicator: TA97, Metabolic Activation: NONE, Method: PREINCUBATION) was “inactive; negative” and the mutagenic call (Test System: AMES SALMONELLA TYPHIMURIUM, Strain/Indicator: TA97, Metabolic Activation: RAT, LIVER, S-9, AROCLOR 1254 (10%), Method: PREINCUBATION) was “inactive; negative”. For the same molecule, the mutagenic call (Test System: AMES SALMONELLA TYPHIMURIUM, Strain/Indicator: TA98, Metabolic Activation: HAMSTER, LIVER, S-9, AROCLOR 1254 (10%), Method: PREINCUBATION) was “inactive; negative”, the mutagenic call [1] was “inactive; negative” and the mutagenic call (Test System: AMES SALMONELLA TYPHIMURIUM, Strain/Indicator: TA98, Metabolic Activation: RAT LIVER S-9, PHENOBARBITAL AND BETA-NAPHTHOFLAVONE, Method: PREINCUBATION) was “inactive; negative”. The mutagenic call (Test System: AMES SALMONELLA TYPHIMURIUM, Strain/Indicator: TA98, Metabolic Activation: RAT, LIVER, S-9, AROCLOR 1254 (10%), Method: PREINCUBATION) was “inactive; negative”, the mutagenic call (Test System: AMES SALMONELLA TYPHIMURIUM, Strain/Indicator: TA100, Metabolic Activation: HAMSTER, LIVER, S-9, AROCLOR 1254 (10%), Method: PREINCUBATION) was “active; positive” and the mutagenic call [2] was “inactive; negative”. The mutagenic call (Test System: AMES SALMONELLA TYPHIMURIUM, Strain/Indicator: TA100, Metabolic Activation: RAT LIVER S-9, PHENOBARBITAL AND BETA-NAPHTHOFLAVONE, Method: PREINCUBATION) was “inactive; negative”, the mutagenic call (Test System: AMES SALMONELLA TYPHIMURIUM, Strain/Indicator: TA100, Metabolic Activation: RAT, LIVER, S-9, AROCLOR 1254 (10%), Method: PREINCUBATION) was “inactive; negative” and the mutagenic call (Test System: AMES SALMONELLA TYPHIMURIUM, Strain/Indicator: TA1535, Metabolic Activation: HAMSTER, LIVER, S-9, AROCLOR 1254 (10%), Method: PREINCUBATION) was “inactive; negative”. For the same molecule, the mutagenic call [3] was “inactive; negative”, the mutagenic call (Test System: AMES SALMONELLA TYPHIMURIUM, Strain/Indicator: TA1535, Metabolic Activation: RAT LIVER S-9, PHENOBARBITAL AND BETA-NAPHTHOFLAVONE, Method: PREINCUBATION) was “inactive; negative” and the mutagenic call (Test System: AMES SALMONELLA TYPHIMURIUM, Strain/Indicator: TA1535, Metabolic Activation: RAT, LIVER, S-9, AROCLOR 1254 (10%), Method: PREINCUBATION) was “inactive; negative”. For the same molecule, the mutagenic call (Test System: AMES SALMONELLA TYPHIMURIUM, Strain/Indicator: TA1537, Metabolic Activation: HAMSTER, LIVER, S-9, AROCLOR 1254 (10%), Method: PREINCUBATION) was “inactive; negative”, the mutagenic call [4] was “inactive; negative” and the mutagenic call (Test System: AMES SALMONELLA TYPHIMURIUM, Strain/Indicator: TA1537, Metabolic Activation: RAT LIVER S-9, PHENOBARBITAL AND BETA-NAPHTHOFLAVONE, Method: PREINCUBATION) was “inactive; negative”. For the same molecule, the mutagenic call (Test System: AMES SALMONELLA TYPHIMURIUM, Strain/Indicator: TA1538, Metabolic Activation: NONE, Method: PREINCUBATION) was “inactive; negative”, the mutagenic call (Test System: AMES SALMONELLA TYPHIMURIUM, Strain/Indicator: TA1538, Metabolic Activation: RAT LIVER S-9, PHENOBARBITAL AND BETA-NAPHTHOFLAVONE, Method: PREINCUBATION) was “inactive; negative” and the mutagenic call (Test System: E.COLI, Strain/Indicator: WP2UVRA, Metabolic Activation: NONE, Method: PREINCUBATION) was “inactive; negative”. The mutagenic call (Test System: E.COLI, Strain/Indicator: WP2UVRA, Metabolic Activation: RAT LIVER S-9, PHENOBARBITAL AND BETA-NAPHTHOFLAVONE, Method: PREINCUBATION) was “inactive; negative”.

With `CC(=O)Nc1ccc(-c2ccc(NC(C)=O)cc2)cc1` the mutagenic call (Test System: AMES SALMONELLA TYPHIMURIUM, Strain/Indicator: TA1538, Metabolic Activation: GUINEA PIG, LIVER, HEPATOCYTES, Method: PREINCUBATION) was “active; positive”, the mutagenic call (Test System: AMES SALMONELLA TYPHIMURIUM, Strain/Indicator: TA1538, Metabolic Activation: GUINEA PIG, LIVER, S-9, ACETYL-COA (0.1 OR 1 MILLIMOLAR), Method: PREINCUBATION) was “active; positive” and the mutagenic call (Test System: AMES SALMONELLA TYPHIMURIUM, Strain/Indicator: TA1538, Metabolic Activation: GUINEA PIG, LIVER, S-9, Method: PREINCUBATION) was “active; positive”. For the same molecule, the mutagenic call (Test System: AMES SALMONELLA TYPHIMURIUM, Strain/Indicator: TA1538, Metabolic Activation: HAMSTER, LIVER, HEPATOCYTES, Method: PREINCUBATION) was “active; positive”, the mutagenic call (Test System: AMES SALMONELLA TYPHIMURIUM, Strain/Indicator: TA1538, Metabolic Activation: HAMSTER, LIVER, S-9, ACETYL-COA (0.1 OR 1 MILLIMOLAR), Method: PREINCUBATION) was “active; positive” and the mutagenic call (Test System: AMES SALMONELLA TYPHIMURIUM, Strain/Indicator: TA1538, Metabolic Activation: HAMSTER, LIVER, S-9, Method: PREINCUBATION) was “active; positive”. The mutagenic call (Test System: AMES SALMONELLA TYPHIMURIUM, Strain/Indicator: TA1538, Metabolic Activation: RAT, LIVER, HEPATOCYTES, Method: PREINCUBATION) was “active; positive”, the mutagenic call (Test System: AMES SALMONELLA TYPHIMURIUM, Strain/Indicator: TA1538, Metabolic Activation: RAT, LIVER, S-9, ACETYL-COA (0.1 OR 1 MILLIMOLAR), Method: PREINCUBATION) was “active; positive” and the mutagenic call (Test System: AMES SALMONELLA TYPHIMURIUM, Strain/Indicator: TA1538, Metabolic Activation: RAT, LIVER, S-9, Method: PREINCUBATION) was “active; positive”. For the same molecule, the mutagenic call (Test System: Ames Salmonella typhimurium, Strain/Indicator: TA102, Metabolic Activation: None, Method: Preincubation) was “inactive; negative” and the mutagenic call (Test System: Ames Salmonella typhimurium, Strain/Indicator: TA102, Metabolic Activation: Rat, liver, S-9, Aroclor 1254, 4%, Method: Preincubation) was “inactive; negative”.
